# US20170234881A1, “METHODS OF DIAGNOSING AND TREATING CANCER” (INSERM ( INSTITUT NATIONAL DE LA SANTÉ ET DE LA RECHERCHE …, priority 2014, published 2017)
# Key:
# [1] = tested on: sh11HSD2 tumors; experiment: Growth of sh11HSD2 MCF7 tumors xenografted in mice; type: in vivo
# Protocol: (§1) FIG. 7. Knock-down of 11βHSD2 decreases cell proliferation, invasion and survival in MCF7 cells as well as tumor growth and OCDO reverses these effects. shC or shHSD2 MCF7 cells were analyzed as followed: (A) The proliferation of sh-C or shHSD2 cells treated or not with OCDO 5 μM 24 h was measured using quantification of DNA BrDU incorporation as described in FIG. 2A. (B) The proliferation of sh-C or shHSD2 cells treated or not with increasing concentration of cortisone for 24 h was measured as in (A). (C) The invasiveness of sh-C or shHSD2 cells treated or not with OCDO 5 μM for 72 h was assayed using matrigel-coated filters. (D) the formation of colony by sh-C or shHSD2 cells treated or not with OCDO 1 μM was quantified as described in FIG. 6F. […] Animals were monitored for tumor growth twice a week. […] (F) Mean (±s.e.m) of Ki67 positive cell number determined from IHC staining of shC or shHSD2 MCF7 tumor sections from (E), n=8, *P<0.05 (Student's t-test) using HistoQuant, Pannoramic Viewer (3DHistech).
# Exponentially growing MCF7, ShMCF7, E0771, MDA-MB231, MDA-MB468 and TS/A cells were collected, washed twice in PBS and resuspended in PBS. […] Animals were examined daily, and body weights were measured twice per week. In all the experiments, the tumor volume was determined by direct measurement with a caliper and was calculated using the formula (width^2×length)/2. […]
# [2] = tested on: shHSD2 MCF7 cells; experiment: Proliferation of shHSD2 MCF7 cells (BrDU); type: cell-based, human; conditions: sh11HSD2 MCF7 cells, 24 h; OCDO 5 μM; cortisone increasing concentrations
# Protocol: as §1
# MCF7 or HEK293T cells (5×10^6 cells) were transfected with 5 μg of the indicated plasmid using the NEON Transfection System and according to the manufacturer's recommendations. […] Several clones were analyzed by immunoblot analysis and real time RT-qPCR for the knock down of the expression of the protein of interest. […]
# [3] = tested on: shHSD2 MCF7 cells; experiment: Clonogenic assay of shHSD2 MCF7 cells; type: cell-based, human; conditions: OCDO 1 μM
# Protocol: as §1
# Cells, MCF7-sh11bHSD2 (5×10^3), MCF7-shC (5×10^3) or TSA (3×10^3) were seeded in duplicate in […] diameter dish. […] At day 10, colonies were fixed with 3.7% PFA, stained with an aqueous crystal violet solution (0.05%) and the number of colonies was counted.
compound,measurement,setting,value
"CC(C)CCC[C@@H](C)[C@H]1CC[C@H]2[C@@H]3CC(=O)[C@@]4(O)C[C@@H](O)CC[C@]4(C)[C@H]3CC[C@]12C [OCDO, 6-oxo-cholestan-3β,5α-diol]",effect on growth of sh11HSD2 tumors,"[1]; immunodeficient mice, subcutaneous OCDO 15 μg/kg, 5 days/week",reversed the growth inhibition of sh11HSD2 tumors to a level similar to the growth of shC tumors
same,cell proliferation by KI67 staining of tumors,"[1]; sh11HSD2 MCF7 tumors, OCDO treatment",reversed the growth inhibition of sh11HSD2 tumors
same,effect on the inhibition of cell proliferation induced by 11βHSD2 knock-down,[2],able to reverse the inhibition of cell proliferation
same,effect on the inhibition of cell survival (colony formation) mediated by 11βHSD2 knock-down,[3],reversed the inhibition
